Laboratory results taken from publication PMC9652372, “Glycolytic flux control by drugging phosphoglycolate phosphatase” (Nature Communications, 2022).
Values after ≈ are worked out from the molar mass of the structure shown. Values joined by “and” are separate entries in the source; they are usually repeats but may differ in a detail not shown here. Equal values may be shown once. Read-outs that look alike come from different tables or passages of the source.

What was measured:
[1] = biological target: T1, murine PDXP (Mus musculus, UniProt P60487); assay: PDXP activity towards pyridoxal 5'-phosphate (PLP); conditions: phosphatase PDXP; species M.m.; substrate PLP; n.s. = no significant inhibition detectable
T1 sequence (P60487 1-292): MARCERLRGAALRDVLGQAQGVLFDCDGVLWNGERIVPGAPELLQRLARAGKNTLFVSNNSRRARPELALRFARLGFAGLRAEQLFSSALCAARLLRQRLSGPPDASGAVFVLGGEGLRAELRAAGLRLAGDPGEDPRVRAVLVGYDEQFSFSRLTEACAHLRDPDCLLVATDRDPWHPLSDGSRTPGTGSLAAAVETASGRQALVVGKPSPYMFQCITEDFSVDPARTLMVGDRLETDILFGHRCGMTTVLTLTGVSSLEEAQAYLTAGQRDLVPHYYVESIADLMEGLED

[2] = biological target: T2, murine PGP (Mus musculus, UniProt Q8CHP8); assay: biochemical
T2 sequence (Q8CHP8 1-321): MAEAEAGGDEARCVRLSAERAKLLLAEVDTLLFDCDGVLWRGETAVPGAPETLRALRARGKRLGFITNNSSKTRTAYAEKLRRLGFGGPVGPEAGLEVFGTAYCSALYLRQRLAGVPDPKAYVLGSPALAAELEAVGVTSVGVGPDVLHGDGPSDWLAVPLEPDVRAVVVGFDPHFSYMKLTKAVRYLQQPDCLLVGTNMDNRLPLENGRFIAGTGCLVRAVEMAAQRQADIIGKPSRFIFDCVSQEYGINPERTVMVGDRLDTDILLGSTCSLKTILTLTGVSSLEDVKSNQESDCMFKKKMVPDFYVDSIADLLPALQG

[3] = biological target: T3, PGP^WT (Mus musculus, UniProt Q8CHP8); assay: Differential scanning fluorimetry (Thermofluor); assay type: binding
T3 construct: His6 (N, cleaved yes); made in house; host or cells: Escherichia coli BL21 (DE3), pETM11, co-expressed with groES-groEL-tig
T3 sequence (Q8CHP8 1-321): T2 sequence (Q8CHP8 1-321)

[4] = physchem; conditions: organic solvent or mixture
[5] = biological target: T2, murine PGP; assay: IC50 determination, murine PGP, pNPP dephosphorylation
[6] = biological target: T4, murine PDXP/PGP hybrid (Mus musculus, UniProt P60487+Q8CHP8); assay: PG dephosphorylation by PDXP/PGP hybrid protein; assay type: biochemical
T4 construct: consisting of the PGP cap domain (amino acids 114–233) fused to the PDXP core domain; His6 (N, cleaved yes); made in house; host or cells: Escherichia coli BL21 (DE3), pETM11
T4 sequence (P60487 1-100): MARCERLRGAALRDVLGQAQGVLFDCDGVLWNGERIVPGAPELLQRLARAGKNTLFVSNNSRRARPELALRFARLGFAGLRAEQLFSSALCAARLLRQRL
T4 sequence (Q8CHP8 114-233): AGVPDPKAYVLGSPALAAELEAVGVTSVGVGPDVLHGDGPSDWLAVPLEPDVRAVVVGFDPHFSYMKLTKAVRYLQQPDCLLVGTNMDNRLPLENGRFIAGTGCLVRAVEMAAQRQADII
T4 sequence (P60487 208-292): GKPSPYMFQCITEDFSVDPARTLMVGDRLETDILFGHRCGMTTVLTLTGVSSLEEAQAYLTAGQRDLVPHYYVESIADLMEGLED

[7] = biological target: T5, PGP (Mus musculus, UniProt Q8CHP8); assay: Steady state kinetics of PG dephosphorylation in presence of CP1-3
T5 sequence (Q8CHP8 1-321): T2 sequence (Q8CHP8 1-321)

[8] = PG dephosphorylation, increasing CP concentrations

IC50 [1]: n.s.
IC50 [2]: 1.58 µM and 0.7 µM
TM ([3]; Inhibitor 0.146484 µM): 66.4 °C
TM ([3]; Inhibitor 0.292969 µM): 66.5 °C
TM ([3]; Inhibitor 0.585938 µM): 66.5 °C
TM ([3]; Inhibitor 1.17188 µM): 66.5 °C
TM ([3]; Inhibitor 2.34375 µM): 66.6 °C
TM ([3]; Inhibitor 4.6875 µM): 66.8 °C
TM ([3]; Inhibitor 9.375 µM): 67.7 °C
TM ([3]; Inhibitor 18.75 µM): 68.2 °C
TM ([3]; Inhibitor 37.5 µM): 68.6 °C
TM ([3]; Inhibitor 75 µM): 68.6 °C
TM ([3]; Inhibitor 150 µM): 67.9 °C
increase in the maximal PGP melting temperature ([3]; from 66.4 °C (control conditions)): 2.2 °
solubility [4]: 15 mM (≈ 9220 µg/mL)
IC50 [5]: 4.76 ± 1.19 µM
remaining activity at 50 µM ([5]; read-out: M.m PGP on pNPP, activity, control = 100.00, CP log[M] -4.30103): 28.4%
remaining activity at 25 µM ([5]; read-out: M.m PGP on pNPP, activity, control = 100.00, CP log[M] -4.60206): 32.2%
remaining activity at 10 µM ([5]; read-out: M.m PGP on pNPP, activity, control = 100.00, CP log[M] -5): 43.5%
remaining activity at 5 µM ([5]; read-out: M.m PGP on pNPP, activity, control = 100.00, CP log[M] -5.30103): 58.6%
remaining activity at […] ([5]; read-out: M.m PGP on pNPP, activity, control = 100.00, CP log[M] -5.60206): 63.7%
remaining activity at 1 µM ([5]; read-out: M.m PGP on pNPP, activity, control = 100.00, CP log[M] -6): 94.7%
remaining activity at 0.5 µM ([5]; read-out: M.m PGP on pNPP, activity, control = 100.00, CP log[M] -6.30103): 85.5%
remaining activity at […] ([5]; read-out: M.m PGP on pNPP, activity, control = 100.00, CP log[M] -6.60206): 93.2%
remaining activity at 0.125 µM ([5]; read-out: M.m PGP on pNPP, activity, control = 100.00, CP log[M] -6.90309): 91.7%
remaining activity at 0.0625 µM ([5]; read-out: M.m PGP on pNPP, activity, control = 100.00, CP log[M] -7.20412): 105%
remaining activity at 0.03125 µM ([5]; read-out: M.m PGP on pNPP, activity, control = 100.00, CP log[M] -7.50515): 94%
remaining activity at 64 µM ([6]; activity, control = 100, CP log[M] -4.19382): 17.6%
remaining activity at 32 µM ([6]; activity, control = 100, CP log[M] -4.49485): 16%
remaining activity at 16 µM ([6]; activity, control = 100, CP log[M] -4.79588): 23.7%
remaining activity at 4 µM ([6]; activity, control = 100, CP log[M] -5.39794): 48.1%
remaining activity at 2 µM ([6]; activity, control = 100, CP log[M] -5.69897): 55.7%
remaining activity at 1 µM ([6]; activity, control = 100, CP log[M] -6): 80.9%
remaining activity at 0.5 µM ([6]; activity, control = 100, CP log[M] -6.30103): 90.8%
remaining activity at […] ([6]; activity, control = 100, CP log[M] -6.60206): 93.9%
remaining activity at 0.125 µM ([6]; activity, control = 100, CP log[M] -6.90309): 94.7%
remaining activity at 0.0625 µM ([6]; activity, control = 100, CP log[M] -7.20412): 87.8%
remaining activity at 0.015625 µM ([6]; activity, control = 100, CP log[M] -7.80618): 101%
IC50 ([6]; phosphatase PDXP/PGP, species M.m., substrate PG): 2.57 ± 0.23 µM
mode of PGP inhibition [7]: competitive inhibitors
vmax ([7]; CP 1.0 µM): 49.7 ± 4.0 µmol/min/mg
vmax ([7]; CP 2.0 µM): 51.9 ± 5.9 µmol/min/mg
vmax ([7]; CP 4.0 µM): 36.9 ± 4.8 µmol/min/mg
effect on vmax (reduction) [7, 8]: without affecting vmax
increase of KM [7, 8]: ~ 3 fold
Compound: COc1ccc(C(=O)Nc2ccc(Cc3ccc(NC(=O)c4ccc(OC)c(OC)c4)c(C(=O)O)c3)cc2C(=O)O)cc1OC [CP2]
PGP activity ([7]; 1 µM CP2, PG 25 µM): 1.021 µmol Pi/min/mg and 0.7809 µmol Pi/min/mg and 1.201 µmol Pi/min/mg
PGP activity ([7]; 1 µM CP2, PG 50 µM): 2.343 µmol Pi/min/mg and 1.682 µmol Pi/min/mg and 2.403 µmol Pi/min/mg
PGP activity ([7]; 1 µM CP2, PG 100 µM): 4.865 µmol Pi/min/mg and 4.265 µmol Pi/min/mg and 4.986 µmol Pi/min/mg
PGP activity ([7]; 1 µM CP2, PG 200 µM): 9.31 µmol Pi/min/mg and 8.409 µmol Pi/min/mg and 9.7309 µmol Pi/min/mg
PGP activity ([7]; 1 µM CP2, PG 300 µM): 14.9605 µmol Pi/min/mg and 10.9951 µmol Pi/min/mg and 14.0593 µmol Pi/min/mg
PGP activity ([7]; 1 µM CP2, PG 400 µM): 18.0247 µmol Pi/min/mg and 16.763 µmol Pi/min/mg and 17.3037 µmol Pi/min/mg
PGP activity ([7]; 1 µM CP2, PG 500 µM): 19.8272 µmol Pi/min/mg and 20.5481 µmol Pi/min/mg and 19.4667 µmol Pi/min/mg
PGP activity ([7]; 1 µM CP2, PG 600 µM): 21.8099 µmol Pi/min/mg and 21.6296 µmol Pi/min/mg
PGP activity ([7]; 1 µM CP2, PG 700 µM): 22.7111 µmol Pi/min/mg and 24.1531 µmol Pi/min/mg and 23.6123 µmol Pi/min/mg
PGP activity ([7]; 1 µM CP2, PG 800 µM): 21.8099 µmol Pi/min/mg and 23.0716 µmol Pi/min/mg and 24.8741 µmol Pi/min/mg
PGP activity ([7]; 2 µM CP2, PG 25 µM): 0.7809 µmol Pi/min/mg and 0.7208 µmol Pi/min/mg and 0.9611 µmol Pi/min/mg
PGP activity ([7]; 2 µM CP2, PG 50 µM): 1.081 µmol Pi/min/mg and 1.682 µmol Pi/min/mg and 1.982 µmol Pi/min/mg
PGP activity ([7]; 2 µM CP2, PG 100 µM): 2.9433 µmol Pi/min/mg and 3.424 µmol Pi/min/mg and 3.784 µmol Pi/min/mg
PGP activity ([7]; 2 µM CP2, PG 200 µM): 6.247 µmol Pi/min/mg and 7.088 µmol Pi/min/mg and 7.028 µmol Pi/min/mg
PGP activity ([7]; 2 µM CP2, PG 300 µM): 7.39 µmol Pi/min/mg and 11.3555 µmol Pi/min/mg and 12.0765 µmol Pi/min/mg
PGP activity ([7]; 2 µM CP2, PG 400 µM): 12.7975 µmol Pi/min/mg and 13.6988 µmol Pi/min/mg and 14.4198 µmol Pi/min/mg
PGP activity ([7]; 2 µM CP2, PG 500 µM): 16.763 µmol Pi/min/mg and 16.4025 µmol Pi/min/mg
PGP activity ([7]; 2 µM CP2, PG 600 µM): 17.8444 µmol Pi/min/mg and 17.3037 µmol Pi/min/mg and 17.6642 µmol Pi/min/mg
PGP activity ([7]; 2 µM CP2, PG 700 µM): 19.2864 µmol Pi/min/mg and 19.1062 µmol Pi/min/mg
PGP activity ([7]; 2 µM CP2, PG 800 µM): 20.3679 µmol Pi/min/mg and 20.7284 µmol Pi/min/mg and 19.2864 µmol Pi/min/mg
PGP activity ([7]; 4 µM CP2, PG 50 µM): 1.502 µmol Pi/min/mg and 0.7809 µmol Pi/min/mg and 1.321 µmol Pi/min/mg
PGP activity ([7]; 4 µM CP2, PG 100 µM): 2.523 µmol Pi/min/mg and 1.742 µmol Pi/min/mg and 2.222 µmol Pi/min/mg
PGP activity ([7]; 4 µM CP2, PG 200 µM): 4.745 µmol Pi/min/mg and 4.565 µmol Pi/min/mg
PGP activity ([7]; 4 µM CP2, PG 300 µM): 8.4716 µmol Pi/min/mg and 6.669 µmol Pi/min/mg and 5.7679 µmol Pi/min/mg
PGP activity ([7]; 4 µM CP2, PG 400 µM): 10.8148 µmol Pi/min/mg and 9.012 µmol Pi/min/mg
PGP activity ([7]; 4 µM CP2, PG 500 µM): 11.1753 µmol Pi/min/mg and 11.8963 µmol Pi/min/mg and 10.8148 µmol Pi/min/mg
PGP activity ([7]; 4 µM CP2, PG 600 µM): 12.437 µmol Pi/min/mg and 12.9778 µmol Pi/min/mg
PGP activity ([7]; 4 µM CP2, PG 700 µM): 13.5185 µmol Pi/min/mg and 14.0593 µmol Pi/min/mg and 12.9778 µmol Pi/min/mg
PGP activity ([7]; 4 µM CP2, PG 800 µM): 13.3383 µmol Pi/min/mg and 13.879 µmol Pi/min/mg and 14.6 µmol Pi/min/mg
